Consider eleven molecules from patent US8927484B2, “Antiviral compounds” (Gilead Sciences, Inc., priority 2009, dated 2015).

T1 sequence (P27958 1027-1208): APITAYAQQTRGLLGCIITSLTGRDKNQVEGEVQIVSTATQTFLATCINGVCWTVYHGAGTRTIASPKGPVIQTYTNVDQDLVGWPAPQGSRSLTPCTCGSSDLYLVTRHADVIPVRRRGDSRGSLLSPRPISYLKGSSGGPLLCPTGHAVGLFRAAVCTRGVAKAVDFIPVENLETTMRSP

The first assay has as its target T1, HCV NS3 protease (Hepatitis C virus genotype 1a, UniProt P27958).
T1 construct: 2-10 nM of purified NS3 protease domains were pre-incubated
In words: HCV NS3 Protease IC50 Determination (FRET). The conditions noted are these: result in words. It is filed as biochemical.
For `CC[C@@H]1C[C@]1(NC(=O)[C@@H]1C[C@@H](OC(=O)N2Cc3cccc(F)c3C2)[C@H]2CCCC(=O)N21)C(=O)NS(=O)(=O)C1CC1` [Example 90], the “activity in the enzymatic assay” value was “fails to demonstrate optimal activity”.

In another assay the test system is Replicon cells harboring H77 (genotype 1a) or Con1 (genotype 1b) HCV RNA and Renilla luciferase reporter. The assay can be described thus: High Throughput Replicon Assay (HTBS). It is filed as cell-based. The conditions noted are these: 72 h, read-out: INH @1 μM (Mean). How it is done:
High Throughput Replicon Assay (HTBS)
Replicon cells harboring H77 (genotype 1a) or Con1 (genotype 1b) HCV RNA and Renilla luciferase reporter were seeded in 384-well black plates at a density of 1.6×10^3 cells per well in 90 μl of DMEM culture medium, excluding G-418. Compounds were serially diluted in 100% DMSO and added to cells at a 1:225 dilution, achieving a final concentration of 0.44% DMSO in a total volume of 90 μL with a Biotek uFlow Workstation. Cell plates were incubated at 37° C. with 5% CO2 for 3 days, after which culture media were removed and cells were assayed for luciferase activity as a marker for replication level. Luciferase expression was measured using Dual-Glo luciferase assay reagents (Promega, Madison, Wis.). Briefly, 20 μL of Dual-Glo luciferase buffer was added to lyse the cells for 10 min and subsequently 20 μL of a diluted Dual-Glo Stop & Glo substrate (1:100) was added to each well. Luminescence signal was measured on a Perkin Elmer Envision Plate Reader after incubation for 10 minute. Luciferase levels were converted into percentages relative to the untreated controls (defined as 100%) and data were fit to the logistic dose response equation y=a/(1+(x/b)^c) using XLFit4 software (IDBS, Emeryville, Calif.). EC50 values were calculated from the resulting equations.
For `C=C[C@@H]1C[C@]1(NC(=O)[C@@H]1C[C@@H](Oc2cc(-c3nc(C(C)C)cs3)nc3c(Cl)c(OCCN4CCOCC4)ccc23)[C@H]2CN(C(=O)OC(C)(C)C)[C@H]([C@@H](C)OC)C(=O)N21)C(=O)NS(=O)(=O)C1CC1` [Example 54], the inhibition at 1 µM was > 45%.

`C=C[C@@H]1C[C@]1(NC(=O)[C@@H]1C[C@@H](Oc2cc(-c3nc(C(C)C)cs3)nc3c(Cl)c(OCCN4CCOCC4)ccc23)[C@H]2CN(C(=O)NC(C)(C)C)[C@H](C(C)C)C(=O)N21)C(=O)NS(=O)(=O)C1CC1` [Example 18]: the inhibition at 1 µM was > 35%.

`C=C[C@@H]1C[C@]1(NC(=O)[C@@H]1C[C@@H](Oc2cc(-c3nc(C(C)C)cs3)nc3c(C)c(OC)ccc23)[C@H]2CN(C)[C@H](C(C)C)C(=O)N21)C(=O)NS(=O)(=O)C1CC1` [Example 62]: the inhibition at 1 µM is > 99%.

`CC[C@@H]1C[C@]1(NC(=O)[C@@H]1C[C@@H](Oc2cc(-c3nc(C(C)C)cs3)nc3c(Cl)c(OCCN4CCOCC4)ccc23)[C@H]2CN(C(=O)OC(C)(C)C)[C@H]([C@H](C)CC)C(=O)N21)C(=O)NS(=O)(=O)C1CC1` [Example 36]: the inhibition at 1 µM is > 90%.

As to `CC[C@@H]1C[C@]1(NC(=O)[C@@H]1C[C@@H](Oc2cc(-c3nc(C(C)C)cs3)nc3c(Cl)c(OC)ccc23)[C@H]2CN(C(=O)OC(C)(C)C)[C@H](C(C)C)C(=O)N21)C(=O)NS(=O)(=O)C1CC1` [Example 6], the inhibition at 1 µM is > 99%.

Regarding `C=C[C@@H]1C[C@]1(NC(=O)[C@@H]1C[C@@H](Oc2cc(-c3nc(C(C)C)cs3)nc3c(Cl)c(OCCN4CCOCC4)ccc23)[C@H]2CN(C(=O)OC(C)(C)C)[C@H](C(C)C)C(=O)N21)C(=O)NS(=O)(=O)C1(C)CC1` [Example 46], the inhibition at 1 µM is > 99%.

Turning to `CC[C@@H]1C[C@]1(NC(=O)[C@@H]1C[C@@H](Oc2cc(-c3nc(C(C)C)cs3)nc3c(Cl)c(OCCN4CCOCC4)ccc23)[C@H]2CN(C(=O)OC(C)(C)C)[C@H](C3CCOCC3)C(=O)N21)C(=O)NS(=O)(=O)C1CC1` [Example 74], the inhibition at 1 µM is > 90%.

For `C=C[C@@H]1C[C@]1(NC(=O)[C@@H]1C[C@@H](Oc2cc(-c3nc(C(C)C)cs3)nc3c(Cl)c(OCCN4CCOCC4)ccc23)[C@H]2CN(C(=O)OC(C)(C)C)[C@H]([C@H](C)OC)C(=O)N21)C(=O)NS(=O)(=O)C1CC1` [Example 55], the inhibition at 1 µM is > 95%.

For `C=C[C@@H]1C[C@]1(NC(=O)[C@@H]1C[C@@H](Oc2cc(-c3nc(C(C)C)cs3)nc3c(Cl)c(OCCN4CCOCC4)ccc23)[C@H]2CN(C(=O)CC(C)(C)C)[C@H](C(C)C)C(=O)N21)C(=O)NS(=O)(=O)C1CC1` [Example 19], the inhibition at 1 µM was > 55%.

Regarding `C=C[C@@H]1C[C@]1(NC(=O)[C@@H]1C[C@@H](Oc2cc(-c3csc(C(C)C)n3)nc3c(Cl)c(OC)ccc23)[C@H]2CN(C(=O)OC(C)(C)C)[C@H](C(C)(C)C)C(=O)N21)C(=O)NS(=O)(=O)C1CC1` [Example 2], the inhibition at 1 µM was > 99%.

Staying with this assay, now noted: result in words.
Turning to `CC[C@@H]1C[C@]1(NC(=O)[C@@H]1C[C@@H](OC(=O)N2Cc3cccc(F)c3C2)[C@H]2CCCC(=O)N21)C(=O)NS(=O)(=O)C1CC1` [Example 90], the “activity in the cellular assay” value was “fails to demonstrate optimal activity”.
